Assay results as given in patent US8066972B2, “Altering memory by affecting staufen function” (Helicon Therapeutics, Inc., priority 2002, dated 2011).

Test system: C57B1/6 male mice
Experiment: Contextual fear conditioning (weak versus strong training), 4-day contextual memory scored as freezing, after intra-hippocampal infusion
Assay type: in vivo, mouse
Design: effect on memory induced by strong training: dose or concentration left out as unconfirmed
Conditions: tested 4 days after training; for freezing responses: ANI 62.5 μg/2 μl per hippocampus immediately after training
Procedure: Ten to twelve week old C57B1/6 male mice (Taconic Laboratory, N.Y.) were used. Mice were housed in groups of four in standard mouse cages and kept in a 12:12 light-dark cycle and constant temperature (22° C.) in a humidity and ventilation-controlled animal house. With the exception of surgery, training and testing times, the mice had ad lib access to food and water. Animals were acclimatized to animal house environment for a week before surgery. On a day of surgery, mice were anesthetized with 20 mg/kg Avertin and implanted with a 26-gauge guide double cannula aimed at the dorsal hippocampus using a stereotaxic apparatus (Korf Instruments, Calif.; coordinates: P=1 mm; 5 mm to a depth 1-1.2 mm; Franklin and Paxinos, The Mouse Brain In Stereotaxis Coordinates, Academic Press, San Diego, Calif. (1997)). After the end of surgery, animals were individually maintained in a cage with ad lib access to food and water. Seven days after recovery from surgery, animals were trained for contextual fear conditioning.
The basic fear conditioning procedures and equipment remained as described (Bourtchuladze, R. et al., Cell, 79:59-68 (1994); and Bourtchouladze et al., Learn Mem., 5(4-5):365-374 (1998)). On the training day, the mouse was placed in the conditioning chamber (Med Associates) for 2 minutes before the onset of unconditioned stimulus (US) of 0.5 mA, two seconds shock. For weak training, US was repeated two times with a one minute inter-trial interval between shocks. For strong training, 5 USs were given. Training was automated and performed by computerized software package (Med Associates).
Thirty seconds after the end of the last trial, the mouse was returned to its home cage. The conditioning chamber was cleaned with 75% ethanol and then with water. Contextual memory was tested four days after training by scoring freezing responses. Freezing was assessed with a sampling method. That is, 2 second observations were taken every 5 seconds (Bourtchuladze, R. et al., Cell, 79:59-68 (1994); Bourtchouladze et al., Learn Mem., 5(4-5):365-374 (1998); and Frankland, P. W. et al., Behav. Neurosci., 112:863-874 (1998)). A mouse was detminined to be freezing when it adopted a motionless posture, refraining from all but respiratory movements.
For each training and drug-injecting procedure, an experimentally nave group of animals was used. The observations were made by an experimenter unaware of the experimental treatment of the mice. In each experiment, both training and testing were videotaped. Experiments were analyzed with an analysis of variance (ANOVA) and t-tests.
Anisomycin (ANI) (Sigma) was dissolved in 0.9% saline, and the pH was adjusted with 1 N HCl to 7.4. Control animals received injections of saline. Mice were injected in the hippocampus (62.5 μg/2 μl per hippocampus) immediately after training. Infusions were made through the guide cannula using a 33-gauge injection needle. The needle was connected via a polyethylene tube to a microsyringe fixed in the pump 11 (Harvard Instruments). The entire infusion procedure took 2 minutes and animals were freely moving during this time in the home cage. Experiments were replicated 2 times and for each training procedure, an experimentally nave group of animals was used (n=47 total).
Mouse antisense oligodeoxynucleotides (ODNs) directed against CREB mRNA (5′-T-s-g-s-g-s-T-C-A-T-T-g-T-T-A-C-C-g-s-g-s-T-s-g-3′) (SEQ ID NO:1) was used to disrupt hippocampal CREB protein levels. Control groups received infusions of ODN of the same base composition but in randomized order (scrambled CREB: 5′-g-s-T-s-C-s-T-g-T-A-g-T-C-g-A-T-C-T-A-T-s-g-s-g-s-T3′) (SEQ ID NO:2). ODNs were administered into the hippocampus (2 nmol/2 μl per hippocampus) as described above for ANI-infusion. CREB ODNs were infused 20 hours before training. Experiments were replicated 3 times and for each training procedure, an experimentally nave group of animals was used (n=54 total). […]

Q: How did the freezing responses (strong training (5 USs)) turn out when `COc1ccc(C[C@H]2NC[C@H](O)[C@H]2OC(C)=O)cc1` [ANI, Anisomycin] was run?
A: Its freezing responses is 28.42±4.9%.

Q: And the freezing responses (weak training (2 USs))?
A: Its freezing responses is 17.1±4.3%.

Q: And the “effect on memory induced by weak training” value (“effect … by weak training” for short) (ANI 62.5 mg/2 μl per hippocampus immediately after training, weak training, vs vehicle)?
A: The value was “significantly impaired memory”.

Q: And the “effect on memory induced by strong training” value (ANI per hippocampus immediately after training, strong training, vs vehicle)?
A: Its value is “significantly impaired memory”.

Q: With `COc1ccc(C2CNC(=O)C2)cc1OC1CCCC1` (centres unmarked) [Rolipram] as the compound, how does the “effect … by weak training” value (Rolipram 0.03 ng into hippocampus, weak training (2 trials)) read?
A: Its value is “had no memory enhancing effect”.

Q: What about the “effect … by weak training” value (Rolipram 3 ng into hippocampus, weak training (2 trials)) of the same compound?
A: Its value is “produced memory enhancing effect”.

Q: And the “effect … by weak training” value (Rolipram 30 ng/1 μl per hippocampus immediately after training, 2 trials, vs vehicle)?
A: The value was “significantly enhanced the amount of memory”.

Q: And the “effect on maximal memory levels produced by strong training” value (Rolipram 30 ng/1 μl per hippocampus immediately after training, 5 trials, vs vehicle)?
A: Its value is “had no effect”.
